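Each compound was tested at five concentrations against cells in 96-well plates for 48 hours. TGI: concentration producing complete growth inhibition.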 Where only a bound is given, the exact number is not on record here.

One assay deals with HOP-92 NSCLC. Kind of assay: inhibition of tumour cell growth, NCI panel, 48 h.
Regarding `O=C(O)c1nc2ccc(C(F)(F)F)cc2nc1NCc1ccc(F)cc1`, the TGI came out at 45.3 µM.

In another assay the test system is HS 578T breast. Kind of assay: inhibition of tumour cell growth, NCI panel, 48 h.
With `COc1ccc(C2OC(N)=C(C#N)C3=C2CCCC3C)cc1OC` (configuration not stated), the TGI was greater than 100 µM.

The compound `COc1ccc(CC2c3cc(OC)c(OC)cc3CC[N+]2(C)C)cc1OC` (configuration not stated) came in with a TGI greater than 100 µM.

In another assay the test system is HT29 colon. Kind of assay: inhibition of tumour cell growth, NCI panel, 48 h.
In turn, `COc1ccc(C2OC(N)=C(C#N)C3=C2CCCC3C)cc1OC` (configuration not stated) had a TGI greater than 100 µM.

As for `COc1ccc(CC2c3cc(OC)c(OC)cc3CC[N+]2(C)C)cc1OC` (configuration not stated), the TGI was greater than 100 µM.

For `Oc1cc(O)cc(-c2nc3cc(F)ccc3s2)c1`, the TGI amounted to 44.8 µM.

The next assay has as its system IGROV1 ovarian. Kind of assay: inhibition of tumour cell growth, NCI panel, 48 h.
For `COc1ccc(C2OC(N)=C(C#N)C3=C2CCCC3C)cc1OC` (configuration not stated), the TGI was greater than 100 µM.

Regarding `COc1ccc(CC2c3cc(OC)c(OC)cc3CC[N+]2(C)C)cc1OC` (configuration not stated), the TGI was greater than 100 µM.

As for `O=C(O)c1nc2ccc(C(F)(F)F)cc2nc1NCc1ccc(F)cc1`, the TGI is greater than 100 µM.

`Oc1cc(O)cc(-c2nc3cc(F)ccc3s2)c1` showed a TGI of 70.9 µM.

In another assay the test system is K-562 leukemia. Nature of the assay: inhibition of tumour cell growth, NCI panel, 48 h.
Regarding `COc1ccc(C2OC(N)=C(C#N)C3=C2CCCC3C)cc1OC` (configuration not stated), the TGI is greater than 100 µM.

Take `COc1ccc(CC2c3cc(OC)c(OC)cc3CC[N+]2(C)C)cc1OC` (configuration not stated): the TGI is greater than 100 µM.

Consider `O=C(O)c1nc2ccc(C(F)(F)F)cc2nc1NCc1ccc(F)cc1`, for which the TGI was found to be 55.6 µM.

The next assay has as its system KM12 colon. Nature of the assay: inhibition of tumour cell growth, NCI panel, 48 h.
`COc1ccc(C2OC(N)=C(C#N)C3=C2CCCC3C)cc1OC` (configuration not stated) returned a TGI greater than 100 µM.

On to `COc1ccc(CC2c3cc(OC)c(OC)cc3CC[N+]2(C)C)cc1OC` (configuration not stated), for which the TGI is greater than 100 µM.

Compound `O=C(O)c1nc2ccc(C(F)(F)F)cc2nc1NCc1ccc(F)cc1` yielded a TGI greater than 100 µM.

`Oc1cc(O)cc(-c2nc3cc(F)ccc3s2)c1` gave a TGI of 52.1 µM.

A further assay has as its system LOX IMVI melanoma. Nature of the assay: inhibition of tumour cell growth, NCI panel, 48 h.
In turn, `COc1ccc(C2OC(N)=C(C#N)C3=C2CCCC3C)cc1OC` (configuration not stated) yielded a TGI greater than 100 µM.

Compound `COc1ccc(CC2c3cc(OC)c(OC)cc3CC[N+]2(C)C)cc1OC` (configuration not stated) registered a TGI greater than 100 µM.

Turning to `O=C(O)c1nc2ccc(C(F)(F)F)cc2nc1NCc1ccc(F)cc1`, the TGI was determined as 36.5 µM.

Consider `Oc1cc(O)cc(-c2nc3cc(F)ccc3s2)c1`, for which the TGI is 39.3 µM.

The test system of another assay is M14 melanoma. Nature of the assay: inhibition of tumour cell growth, NCI panel, 48 h.
Consider `COc1ccc(C2OC(N)=C(C#N)C3=C2CCCC3C)cc1OC` (configuration not stated), for which the TGI is greater than 100 µM.

Consider `O=C(O)c1nc2ccc(C(F)(F)F)cc2nc1NCc1ccc(F)cc1`, for which the TGI turned out to be 61.7 µM.

Compound `Oc1cc(O)cc(-c2nc3cc(F)ccc3s2)c1` registered a TGI of 50.1 µM.

The subject of another assay is MALME-3M melanoma. Kind of assay: inhibition of tumour cell growth, NCI panel, 48 h.
`COc1ccc(C2OC(N)=C(C#N)C3=C2CCCC3C)cc1OC` (configuration not stated) returned a TGI greater than 100 µM.

For the compound `COc1ccc(CC2c3cc(OC)c(OC)cc3CC[N+]2(C)C)cc1OC` (configuration not stated), the TGI is greater than 100 µM.

In the case of `Oc1cc(O)cc(-c2nc3cc(F)ccc3s2)c1`, the TGI is greater than 100 µM.

Another assay deals with MCF7 breast. Kind of assay: inhibition of tumour cell growth, NCI panel, 48 h.
Compound `COc1ccc(C2OC(N)=C(C#N)C3=C2CCCC3C)cc1OC` (configuration not stated) registered a TGI greater than 100 µM.

Regarding `COc1ccc(CC2c3cc(OC)c(OC)cc3CC[N+]2(C)C)cc1OC` (configuration not stated), the TGI was greater than 100 µM.

In the case of `O=C(O)c1nc2ccc(C(F)(F)F)cc2nc1NCc1ccc(F)cc1`, the TGI came to 68.8 µM.

Regarding `Oc1cc(O)cc(-c2nc3cc(F)ccc3s2)c1`, the TGI was 64.6 µM.

The next assay has as its system MDA-MB-231 breast. Kind of assay: inhibition of tumour cell growth, NCI panel, 48 h.
In turn, `COc1ccc(C2OC(N)=C(C#N)C3=C2CCCC3C)cc1OC` (configuration not stated) registered a TGI greater than 100 µM.

As to `COc1ccc(CC2c3cc(OC)c(OC)cc3CC[N+]2(C)C)cc1OC` (configuration not stated), the TGI is greater than 100 µM.

`O=C(O)c1nc2ccc(C(F)(F)F)cc2nc1NCc1ccc(F)cc1` came in with a TGI of 81.4 µM.

In turn, `Oc1cc(O)cc(-c2nc3cc(F)ccc3s2)c1` yielded a TGI of 55.8 µM.

The test system of another assay is MDA-MB-435. Kind of assay: inhibition of tumour cell growth, NCI panel, 48 h.
`COc1ccc(C2OC(N)=C(C#N)C3=C2CCCC3C)cc1OC` (configuration not stated) came in with a TGI greater than 100 µM.

For `COc1ccc(CC2c3cc(OC)c(OC)cc3CC[N+]2(C)C)cc1OC` (configuration not stated), the TGI was greater than 100 µM.

Compound `O=C(O)c1nc2ccc(C(F)(F)F)cc2nc1NCc1ccc(F)cc1` gave a TGI greater than 100 µM.

Regarding `Oc1cc(O)cc(-c2nc3cc(F)ccc3s2)c1`, the TGI was greater than 100 µM.

In the next assay the test system is MDA-N. Kind of assay: inhibition of tumour cell growth, NCI panel, 48 h.
For the compound `COc1ccc(C2OC(N)=C(C#N)C3=C2CCCC3C)cc1OC` (configuration not stated), the TGI is greater than 100 µM.

Consider `COc1ccc(CC2c3cc(OC)c(OC)cc3CC[N+]2(C)C)cc1OC` (configuration not stated), for which the TGI was greater than 100 µM.

For the compound `O=C(O)c1nc2ccc(C(F)(F)F)cc2nc1NCc1ccc(F)cc1`, the TGI was 76.9 µM.

`Oc1cc(O)cc(-c2nc3cc(F)ccc3s2)c1`: the TGI is greater than 100 µM.

The test system of a further assay is MOLT-4 leukemia. Kind of assay: inhibition of tumour cell growth, NCI panel, 48 h.
`COc1ccc(C2OC(N)=C(C#N)C3=C2CCCC3C)cc1OC` (configuration not stated) registered a TGI greater than 100 µM.

In turn, `COc1ccc(CC2c3cc(OC)c(OC)cc3CC[N+]2(C)C)cc1OC` (configuration not stated) gave a TGI greater than 100 µM.

As to `O=C(O)c1nc2ccc(C(F)(F)F)cc2nc1NCc1ccc(F)cc1`, the TGI was 33.2 µM.

A further assay deals with NCI-H226 lung. Nature of the assay: inhibition of tumour cell growth, NCI panel, 48 h.
Turning to `COc1ccc(C2OC(N)=C(C#N)C3=C2CCCC3C)cc1OC` (configuration not stated), the TGI is greater than 100 µM.

Compound `COc1ccc(CC2c3cc(OC)c(OC)cc3CC[N+]2(C)C)cc1OC` (configuration not stated) showed a TGI greater than 100 µM.

Compound `O=C(O)c1nc2ccc(C(F)(F)F)cc2nc1NCc1ccc(F)cc1` showed a TGI greater than 100 µM.

Turning to `Oc1cc(O)cc(-c2nc3cc(F)ccc3s2)c1`, the TGI came out at 64.2 µM.

Another assay concerns NCI-H23 lung. Kind of assay: inhibition of tumour cell growth, NCI panel, 48 h.
As for `COc1ccc(C2OC(N)=C(C#N)C3=C2CCCC3C)cc1OC` (configuration not stated), the TGI is greater than 100 µM.

`COc1ccc(CC2c3cc(OC)c(OC)cc3CC[N+]2(C)C)cc1OC` (configuration not stated) had a TGI greater than 100 µM.
